Measurements: patent publication US12486269B2 (Aconcagua Bio, Inc., priority 2024, dated 2025)

Tests used:
[1] = molecular target: T1, COS-7/AMY3 (human calcitonin receptor (CTR) and RAMP3) (Homo sapiens, UniProt O60896+P30988); test: Amylin Receptor cAMP Assay II; format: cell-based; conditions: values marked **: Amylin Receptor cAMP Assay II; COS-7/AMY3 cells, cAMP dynamic 2 kit, 30 min; read-out: Amylin Receptor cAMP Stimulation Activity: EC50
T1 construct: expressed in transfected cells; host or cells: COS-7
T1 sequence (O60896 24-148, one chain of several): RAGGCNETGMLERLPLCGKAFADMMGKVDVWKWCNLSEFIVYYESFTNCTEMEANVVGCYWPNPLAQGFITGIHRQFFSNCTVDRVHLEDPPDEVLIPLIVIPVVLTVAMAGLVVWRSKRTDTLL
Text: AMYRs are heterodimers of the class B calcitonin (CT) G-protein-coupled receptor (CTR) and receptor activity-modifying proteins (RAMPs). All three RAMPs can interact with the CTR and form AMY1, AMY2, AMY3 with RAMP1, RAMP2 and RAMP3, respectively. Like other class B1 GPCRs, the CT receptor family is canonically coupled to Gs-mediated cAMP production, and measurement of cAMP accumulation has been the primary assay used to determine peptide selectivity and potency.
(§1) To optimize functional activity directed toward Gαs coupling, COS-7 cells were stably transfected with human calcitonin receptor (CTR) and RAMP3, simultaneously. 100×concentration of compound working solutions were prepared with 4-fold serial dilution in 384-well Echo LDV plate (Labcyte, Cat #LP-0200-BC). 200 nL/well 100×concentration of compound working solutions were moved to 384-well white microplate (Perkin Elmer, Cat #6007680) using Labcyte ECHO550. 1×10^5 cells/mL COS-7/AMY3 cell suspensions prepared with assay buffer [HBSS containing 20 mM HEPES (Gibco, Cat #15630-080), 0.5 mM IBMX (Sigma, Cat #15879) and 0.1% Casein (Sigma, Cat #C4765)], 20 μL cell suspensions were added to each well of previous generated assay plate which already contains 200 nL compound at 100×concentration using ThermoFisher Multidrop Combi (2000 cells/well). Seal the plate and incubate at 37° C. with 5% CO2 for 30 min.
(§2) After incubation, the cAMP assay signal was generated using cAMP dynamic 2 kit (Revvity, Cat #62AM4PEC). 10 μL cAMP-d2 working solution was added to each well, followed by 10 μL Anti-cAMP antibody-cryptate working solution which was added to each well using CERTUS FLEX LIQUID […]. The samples were then incubated at room temperature for 1 hour protected from light. the fluorescence was read at 665 and 615 nm with Reader PerkinElmer EnVision 2105. % Activity=100−(mean RLU of test sample−mean RLU of positive control)/(mean RLU of vehicle control−mean RLU of positive control)×100 Calcitonin Receptor (CTR) cAMP Assay

[2] = molecular target: T2, human calcitonin receptor (CTR) (Homo sapiens, UniProt P30988); test: Calcitonin Receptor (CTR) cAMP Assay; format: cell-based; conditions: COS7-human CTR Clone #2 stable cell line, cAMP dynamic 2 kit, 30 min; read-out: Calcitonin Receptor cAMP Stimulation Activity: EC50
T2 construct: expressed in transfected cells; host or cells: COS-7 (COS7-human CTR Clone #2)
T2 sequence (P30988 25-474): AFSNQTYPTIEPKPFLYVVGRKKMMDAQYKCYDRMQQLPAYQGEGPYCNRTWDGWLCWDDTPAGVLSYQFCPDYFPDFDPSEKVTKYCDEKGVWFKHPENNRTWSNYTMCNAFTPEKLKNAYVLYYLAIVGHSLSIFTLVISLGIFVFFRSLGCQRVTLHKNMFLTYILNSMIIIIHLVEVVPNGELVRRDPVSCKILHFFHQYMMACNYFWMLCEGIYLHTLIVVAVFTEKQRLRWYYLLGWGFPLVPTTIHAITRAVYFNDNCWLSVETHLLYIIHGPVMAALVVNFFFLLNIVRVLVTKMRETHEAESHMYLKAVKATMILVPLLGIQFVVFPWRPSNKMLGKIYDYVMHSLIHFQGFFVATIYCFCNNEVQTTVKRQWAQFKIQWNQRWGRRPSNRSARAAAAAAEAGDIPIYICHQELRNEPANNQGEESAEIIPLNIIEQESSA
Description: as §2
The calcitonin receptor (CTR) belongs to the subfamily of GPCRs known as the secretin or ‘B’ family of GPCRs. Like other class B1 GPCRs, the CT receptor family is canonically coupled to Gs-mediated cAMP production, and measurement of cAMP accumulation has been the primary assay used to determine peptide selectivity and potency.
as §1, with “to create COS7-human CTR Clone #2 stable cell line.” for “and RAMP3, simultaneously.”, “COS7-human CTR Clone #2” for “COS-7/AMY3”
as §2, with “control)×100” for “control)×100 Calcitonin Receptor (CTR) cAMP Assay”

Row | SMILES | EC50 [1] [nM] | EC50 [2] [nM]
1 | COc1cccc2c1CC[C@H]2Nc1nccc2cc(-c3c4c(nc(CCc5ccc(F)cc5)c3-c3n[nH]c(=O)o3)[C@@H]3CCCN3C4=O)sc12 [Compound 230, 5-((S)-2-(4-fluorophenethyl)-4-(7-(((R)-4-methoxy-2,3-dihydro-1H-inden-1-yl)amino)thieno[2,3-c]pyridin-2-yl)-5-oxo-7,8,9,9a-tetrahydro-5H-pyrido[2,3-a]pyrrolizin-3-yl)-1,3,4-oxadiazol-2(3H)-one] | 17.4 | 0.51
2 | C[C@@H](Nc1nccc2cc(-c3c4c(nc(CCc5ccc(F)cc5)c3-c3noc(=O)[nH]3)[C@@H]3CCCN3C4=O)sc12)c1ccc(F)c(F)c1 [Compound 140] | 19.1 | 2.13
3 | N#Cc1ccc(Cn2c(=O)oc3cc(-c4c(-c5n[nH]c(=O)o5)c(CCc5ccc(F)cc5)nc5c4c(=O)n4n5CCC4)ccc32)cc1F [Compound 162, 2-fluoro-4-((6-(2-(4-fluorophenethyl)-5-oxo-3-(5-oxo-4,5-dihydro-1,3,4-oxadiazol-2-yl)-8,9-dihydro-5H,7H-pyrazolo[1′,2′:1,2]pyrazolo[3,4-b]pyridin-4-yl)-2-oxobenzo[d]oxazol-3(2H)-yl)methyl)benzonitrile] | 3.71 | 0.157
4 | COc1c(F)ccc2c1CC[C@H]2Nc1nccc2cc(-c3c4c(nc(CCc5ccc(F)cc5)c3-c3n[nH]c(=O)o3)C35CC(CN3C4=O)C5)sc12 [Compound 189, (R)-5-(4-(7-((5-fluoro-4-methoxy-2,3-dihydro-1H-inden-1-yl)amino)thieno[2,3-c]pyridin-2-yl)-2-(4-fluorophenethyl)-5-oxo-8,9-dihydro-5H,7H-8,9a-methanopyrido[2,3-a]pyrrolizin-3-yl)-1,3,4-oxadiazol-2(3H)-one] | 0.213 | 0.0262
5 | CC(C)C1CS(=O)(=O)c2c1nc(CCC1CCOCC1)c(-c1cc(=O)[nH]o1)c2-c1cc2ccnc(N[C@@H]3CCc4ncccc43)c2s1 (stereo partly drawn) [Compound 154, 5-(7-(7-(((R)-6,7-dihydro-5H-cyclopenta[b]pyridin-5-yl)amino)thieno[2,3-c]pyridin-2-yl)-3-isopropyl-1,1-dioxido-5-(2-(tetrahydro-2H-pyran-4-yl)ethyl)-2,3-dihydrothieno[3,2-b]pyridin-6-yl)isoxazol-3(2H)-one] | 648 | 52.8

The next lines start with the values.

Row | EC50 [1] [nM] | EC50 [2] [nM] | SMILES
6 | 1.91 | 0.171 | COc1cc(F)cc2c1CC[C@H]2Nc1nccc2cc(-c3c4c(nc(CCc5ccc(F)cc5)c3-c3n[nH]c(=O)o3)[C@@H]3CCCN3C4=O)sc12 [Compound 258, 5-((S)-4-(7-(((R)-6-fluoro-4-methoxy-2,3-dihydro-1H-inden-1-yl)amino)thieno[2,3-c]pyridin-2-yl)-2-(4-fluorophenethyl)-5-oxo-7,8,9,9a-tetrahydro-5H-pyrido[2,3-a]pyrrolizin-3-yl)-1,3,4-oxadiazol-2(3H)-one]
7 | 0.464 | 0.0464 | COc1c(F)ccc2c1CC(F)(F)[C@H]2Nc1nccc2cc(-c3c4c(nc(CCc5ccc(F)cc5)c3-c3n[nH]c(=O)o3)[C@@H]3CCCN3C4=O)sc12 [Compound 282, 5-((S)-2-(4-fluorophenethyl)-5-oxo-4-(7-(((S)-2,2,5-trifluoro-4-methoxy-2,3-dihydro-1H-inden-1-yl)amino)thieno[2,3-c]pyridin-2-yl)-7,8,9,9a-tetrahydro-5H-pyrido[2,3-a]pyrrolizin-3-yl)-1,3,4-oxadiazol-2(3H)-one]
8 | 1.21 | 0.0289 | Cc1cc2cc(-c3c4c(nc(CCc5ccc(F)cc5)c3-c3n[nH]c(=O)o3)C35CC(CN3C4=O)C5)sc2c(N[C@@H]2CCOc3c(F)cc(F)cc32)n1 [Compound 295, (R)-5-(4-(7-((6,8-difluorochroman-4-yl)amino)-5-methylthieno[2,3-c]pyridin-2-yl)-2-(4-fluorophenethyl)-5-oxo-8,9-dihydro-5H,7H-8,9a-methanopyrido[2,3-a]pyrrolizin-3-yl)-1,3,4-oxadiazol-2(3H)-one]
